Laboratory results: article PMC7377239, “Cardiovascular Effects of Polychlorinated Biphenyls and Their Major Metabolites” (Environmental Health Perspectives, 2020)
Where two headings read alike, the source gives them in different places.

Tested on: iCell cardiomyocytes (human iPSC-derived cardiomyocytes)
Test: High-content imaging of cytotoxicity and mitochondrial integrity in iPSC-CMs
Format: cell-based
Details: Homo sapiens; for viability at 0.01 µM / activity at 0.01 µM / viability at 0.1 µM / activity at 0.1 µM / viability at 1 µM / activity at 1 µM / viability at 10 µM / activity at 10 µM / viability at 100 µM / activity at 100 µM: Cardiomyocyte, 0.00 µM = 100.00; for viability at 0.1 µM / activity at 0.1 µM: 0.10 µM; for minimal effective concentration: iPSC-CM
Summary of the method: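 Readouts from high-content images were normalized to vehicle controls containing 0.5% vol/vol DMSO. They were fit to a four-parameter logistic model in R. Points of departure were set using a cutoff of one standard deviation across vehicle control means. Where no concentration–response was seen, the top tested concentration of 100μM was assigned as the no observable adverse effect level.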

[1] = 1.5 h, read-out: cm.cam.90min POD
[2] = 1.5 h, read-out: cm.mii.90min POD
[3] = 1.5 h, read-out: cm.mito.90min POD
[4] = 1.5 h, read-out: cm.tc.90min POD
[5] = 24 h, read-out: cm.cam.24hrs POD
[6] = 24 h, read-out: cm.mii.24hrs POD
[7] = 24 h, read-out: cm.mito.24hrs POD
[8] = 24 h, read-out: cm.tc.24hrs POD

Clc1ccc(-c2ccccc2)cc1 [PCB3]
viability at 0.01 µM (1.5 h, read-out: cm.cam.90min): 104%
activity at 0.01 µM (1.5 h, read-out: cm.mii.90min): 107%
activity at 0.01 µM (1.5 h, read-out: cm.mito.90min): 104%
viability at 0.01 µM (1.5 h, read-out: cm.tc.90min): 104%
viability at 0.1 µM (1.5 h, read-out: cm.cam.90min): 97.8%
activity at 0.1 µM (1.5 h, read-out: cm.mii.90min): 103%
activity at 0.1 µM (1.5 h, read-out: cm.mito.90min): 97.7%
viability at 0.1 µM (1.5 h, read-out: cm.tc.90min): 97.7%
viability at 1 µM (1.5 h, read-out: cm.cam.90min): 98.5%
activity at 1 µM (1.5 h, read-out: cm.mii.90min): 104%
activity at 1 µM (1.5 h, read-out: cm.mito.90min): 98.3%
viability at 1 µM (1.5 h, read-out: cm.tc.90min): 98.2%
viability at 10 µM (1.5 h, read-out: cm.cam.90min): 99.9%
activity at 10 µM (1.5 h, read-out: cm.mii.90min): 109%
activity at 10 µM (1.5 h, read-out: cm.mito.90min): 99.6%
viability at 10 µM (1.5 h, read-out: cm.tc.90min): 99.5%
viability at 100 µM (1.5 h, read-out: cm.cam.90min): 40.3%
activity at 100 µM (1.5 h, read-out: cm.mii.90min): 141%
activity at 100 µM (1.5 h, read-out: cm.mito.90min): 39.3%
viability at 100 µM (1.5 h, read-out: cm.tc.90min): 40.4%
viability at 0.01 µM (24 h, read-out: cm.cam.24hrs): 87.6%
activity at 0.01 µM (24 h, read-out: cm.mii.24hrs): 109%
activity at 0.01 µM (24 h, read-out: cm.mito.24hrs): 84.7%
viability at 0.01 µM (24 h, read-out: cm.tc.24hrs): 87.2%
viability at 0.1 µM (24 h, read-out: cm.cam.24hrs): 96%
activity at 0.1 µM (24 h, read-out: cm.mii.24hrs): 101%
activity at 0.1 µM (24 h, read-out: cm.mito.24hrs): 93.1%
viability at 0.1 µM (24 h, read-out: cm.tc.24hrs): 95.9%
viability at 1 µM (24 h, read-out: cm.cam.24hrs): 95.4%
activity at 1 µM (24 h, read-out: cm.mii.24hrs): 97.1%
activity at 1 µM (24 h, read-out: cm.mito.24hrs): 91%
viability at 1 µM (24 h, read-out: cm.tc.24hrs): 95.3%
viability at 10 µM (24 h, read-out: cm.cam.24hrs): 91.4%
activity at 10 µM (24 h, read-out: cm.mii.24hrs): 87.2%
activity at 10 µM (24 h, read-out: cm.mito.24hrs): 87.8%
viability at 10 µM (24 h, read-out: cm.tc.24hrs): 90.8%
viability at 100 µM (24 h, read-out: cm.cam.24hrs): 1.51%
activity at 100 µM (24 h, read-out: cm.mii.24hrs): 32%
activity at 100 µM (24 h, read-out: cm.mito.24hrs): 0.72%
viability at 100 µM (24 h, read-out: cm.tc.24hrs): 1.49%
minimal effective concentration [1]: 24.9 µM
minimal effective concentration [2]: 6.86 µM
minimal effective concentration [3]: 21.2 µM
minimal effective concentration [4]: 20 µM
minimal effective concentration [5]: 7.4 µM
minimal effective concentration [6]: 10.9 µM
minimal effective concentration [7]: 6.67 µM
minimal effective concentration [8]: 6.97 µM

Clc1cccc(-c2cccc(Cl)c2)c1 [PCB11]
viability at 0.01 µM (1.5 h, read-out: cm.cam.90min): 99%
activity at 0.01 µM (1.5 h, read-out: cm.mii.90min): 116%
activity at 0.01 µM (1.5 h, read-out: cm.mito.90min): 99.1%
viability at 0.01 µM (1.5 h, read-out: cm.tc.90min): 99%
viability at 0.1 µM (1.5 h, read-out: cm.cam.90min): 97.7%
activity at 0.1 µM (1.5 h, read-out: cm.mii.90min): 102%
activity at 0.1 µM (1.5 h, read-out: cm.mito.90min): 97.7%
viability at 0.1 µM (1.5 h, read-out: cm.tc.90min): 97.7%
viability at 1 µM (1.5 h, read-out: cm.cam.90min): 101%
activity at 1 µM (1.5 h, read-out: cm.mii.90min): 98.3%
activity at 1 µM (1.5 h, read-out: cm.mito.90min): 101%
viability at 1 µM (1.5 h, read-out: cm.tc.90min): 101%
viability at 10 µM (1.5 h, read-out: cm.cam.90min): 99.5%
activity at 10 µM (1.5 h, read-out: cm.mii.90min): 105%
activity at 10 µM (1.5 h, read-out: cm.mito.90min): 99.5%
viability at 10 µM (1.5 h, read-out: cm.tc.90min): 99.3%
viability at 100 µM (1.5 h, read-out: cm.cam.90min): 1.03%
activity at 100 µM (1.5 h, read-out: cm.mii.90min): 152%
activity at 100 µM (1.5 h, read-out: cm.mito.90min): 0.83%
viability at 100 µM (1.5 h, read-out: cm.tc.90min): 1.06%
viability at 0.01 µM (24 h, read-out: cm.cam.24hrs): 103%
activity at 0.01 µM (24 h, read-out: cm.mii.24hrs): 93.5%
activity at 0.01 µM (24 h, read-out: cm.mito.24hrs): 102%
viability at 0.01 µM (24 h, read-out: cm.tc.24hrs): 102%
viability at 0.1 µM (24 h, read-out: cm.cam.24hrs): 99.5%
activity at 0.1 µM (24 h, read-out: cm.mii.24hrs): 93%
activity at 0.1 µM (24 h, read-out: cm.mito.24hrs): 98.7%
viability at 0.1 µM (24 h, read-out: cm.tc.24hrs): 99.3%
viability at 1 µM (24 h, read-out: cm.cam.24hrs): 101%
activity at 1 µM (24 h, read-out: cm.mii.24hrs): 93.7%
activity at 1 µM (24 h, read-out: cm.mito.24hrs): 98.5%
viability at 1 µM (24 h, read-out: cm.tc.24hrs): 101%
viability at 10 µM (24 h, read-out: cm.cam.24hrs): 103%
activity at 10 µM (24 h, read-out: cm.mii.24hrs): 85.7%
activity at 10 µM (24 h, read-out: cm.mito.24hrs): 102%
viability at 10 µM (24 h, read-out: cm.tc.24hrs): 103%
viability at 100 µM (24 h, read-out: cm.cam.24hrs): 0.64%
activity at 100 µM (24 h, read-out: cm.mii.24hrs): 31.3%
activity at 100 µM (24 h, read-out: cm.mito.24hrs): 0.24%
viability at 100 µM (24 h, read-out: cm.tc.24hrs): 0.62%
minimal effective concentration [1]: 18.6 µM
minimal effective concentration [2]: 12.4 µM
minimal effective concentration [3]: 14.2 µM
minimal effective concentration [4]: 16.7 µM
minimal effective concentration [5]: 35.2 µM
minimal effective concentration [6]: 9.6 µM
minimal effective concentration [7]: 33.1 µM
minimal effective concentration [8]: 35.1 µM
